Experimental data reported in US7041307B2, “Biocide-polyester concentrates and biocidal compositions prepared therefrom” (Ciba Specialty Chemicals Corporation, priority 1999, dated 2006).

Test: Yellowness index (ASTM D1925) of polypropylene plaques after multiple pass extrusion, biocide as neat powder or polyester concentrate (Example 2)
Assay type: physicochemical
Conditions: polypropylene plaque
Excerpt: Polypropylene homopolymer (PRO-FAX® 6501, Montell Polyolefins, 100 parts), stabilized with 0.05 parts of neopentanetetrayl tetrakis(3,5-di-tert-butyl-4-hydroxyhydrocinnamate), 0.10 parts of tris(2,4-di-tert-butylohenyl) phosphite and 0.05 parts of calcium stearate is dry blended without a biocide; or with 0.25 parts or with 0.50 parts of 2,4,4′-trichloro-2′-hydroxydiphenyl ether (IRGASAN® or IRGAGUARD®, Ciba Specialty Chemicals Corp.) either as a neat powder or as a concentrate as prepared in Example 1. The parts of components are by weight.
The extruded pellets are compression molded into 125 mil plaques (2″×2″, 5.08 cm×5.08 cm) at 450° F. (232° C.) for nine minutes (three minutes at low pressure; three minutes at high pressure; three minutes cooling). Yellowness index (YI) values are determined on the plaques according to ASTM D1925 on a DCI SF600 spectrophotometer. An increase in yellowness corresponds to a positive increase in the YI value.

Oc1cc(Cl)ccc1Oc1ccc(Cl)cc1Cl [Powder, 2,4,4′-trichloro-2′-hydroxydiphenyl ether]
Yellowness Index (YI) after multiple pass extrusion at 500° F. (260° C.) First (biocide 0.25% by wt): 8.4 | Yellowness Index (YI) after multiple pass extrusion at 550° F. (288° C.) First (biocide 0.25% by wt): 6.4 | Yellowness Index (YI) after multiple pass extrusion at 500° F. (260° C.) Second (biocide 0.25% by wt): 8.8 | Yellowness Index (YI) after multiple pass extrusion at 550° F. (288° C.) Second (biocide 0.25% by wt): 6.3 | Yellowness Index (YI) after multiple pass extrusion at 500° F. (260° C.) Third (biocide 0.25% by wt): 9.7 | Yellowness Index (YI) after multiple pass extrusion at 550° F. (288° C.) Third (biocide 0.25% by wt): 6.6 | Yellowness Index (YI) after multiple pass extrusion at 500° F. (260° C.) First (biocide 0.50% by wt): 8.8 | Yellowness Index (YI) after multiple pass extrusion at 550° F. (288° C.) First (biocide 0.50% by wt): 7.1 | Yellowness Index (YI) after multiple pass extrusion at 500° F. (260° C.) Second (biocide 0.50% by wt): 9.7 | Yellowness Index (YI) after multiple pass extrusion at 550° F. (288° C.) Second (biocide 0.50% by wt): 7.2 | Yellowness Index (YI) after multiple pass extrusion at 500° F. (260° C.) Third (biocide 0.50% by wt): 9.2 | Yellowness Index (YI) after multiple pass extrusion at 550° F. (288° C.) Third (biocide 0.50% by wt): 7.4
